Patent US9206173B2, “Heterocyclic compounds for the treatment of stress-related conditions” (OTSUKA PHARMACEUTICAL CO., LTD., priority 2009, dated 2015)
Counter-ions that a name gives are not always drawn.

Assays:
[1] = target: T1, human GPR10 (Homo sapiens (Human), UniProt P49683); experiment: Inhibitory activity on binding of [3H]-PrRP to GPR10 (HEK 293 cell membrane fraction); conditions: [3H]-PrRP 1 nM, human GPR10-expressing HEK 293 cell membrane fraction; Ki from IC50 by Cheng-Prussoff formula
T1 sequence (P49683 whole entry): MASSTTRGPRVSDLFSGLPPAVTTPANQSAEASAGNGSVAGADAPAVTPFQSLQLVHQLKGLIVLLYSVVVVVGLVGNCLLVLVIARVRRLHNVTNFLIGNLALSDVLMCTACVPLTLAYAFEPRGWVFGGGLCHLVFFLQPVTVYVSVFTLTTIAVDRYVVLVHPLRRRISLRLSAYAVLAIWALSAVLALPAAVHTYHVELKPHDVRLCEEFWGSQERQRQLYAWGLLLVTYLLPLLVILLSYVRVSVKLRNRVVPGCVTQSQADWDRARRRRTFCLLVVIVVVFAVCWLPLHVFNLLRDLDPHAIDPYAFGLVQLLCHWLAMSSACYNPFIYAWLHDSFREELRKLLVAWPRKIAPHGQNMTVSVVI
Procedure, shortened: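 Competition with [3H]-PrRP (1 nM final) for membranes from human GPR10-expressing HEK293 cells, 90 min at room temperature in HEPES/EDTA buffer pH 7.4; filtration and scintillation counting.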

[2] = target: T1, human GPR10; experiment: Antagonistic activity on PrRP-induced intracellular calcium mobilization in human GPR10-expressing HEK293 cells; type: cell-based; conditions: PrRP 1 nM-induced intracellular calcium mobilization, Fluo-8
Description: Pharmacological Test 2 Antagonistic Activity on GPR10 Using Human GPR10-Expressing HEK293 Cells.
Antagonistic activity of test compounds on PrRP-induced intracellular calcium mobilization was evaluated using GPR10-expressing HEK293 cells.
HEK293 cells expressing human GPR10 were maintained in Dulbecco's Modified Eagles' medium supplemented with 10% fetal bovine serum, 1% penicillin-streptomycin and 20 mM HEPES at 37° C. in a 5% CO2 incubator. GPR10-expressing HEK293 cells were placed in poly-D-lysine coated 96-well culture plates and cultured for 18-24 hr before the test at a density of 3×10^4 cells/well. […] The cells were incubated with test compounds for 15 min at room temperature, and then PrRP (the final concentration, 1 nM) was added into the medium. The changes in intracellular calcium-dependent fluorescence were monitored using a fluorescence imaging plate reader (FDSS3000, Hamamatsu Photonics K.K.). Fluo-8 fluorescence was measured with excitation at 490 nm and emission at 520 nm. The calcium-dependent fluorescence intensity was calculated by subtracting basal intensity (average intensity for 30 sec before agonist stimulation) from peak intensity for 60 sec after PrRP-stimulation, and then IC50 values were determined by nonlinear curve-fitting program, GraphPad Prism 5.

Compound	melting point	Ki [1]	IC50 [2]
CC[C@@H](Nc1nc2c(c(=O)n1OC)CN(C(=O)c1ccc(Cl)cc1)CC2)c1ccc(Cl)cc1.Cl	127 to 129.5 °C		
CN(C)n1c(NCc2ccc(C(F)(F)F)c(F)c2)nc2c(c1=O)CN(C(=O)c1ccc(Cl)cc1)CC2.Cl	122 to 124 °C		
C[C@H](Nc1nc2c(c(=O)n1N(C)C)CN(C(=O)c1ccc(Cl)cc1)CC2)c1ccc(C(F)(F)F)cc1.Cl [Example 6, 6-(4-chlorobenzoyl)-3-dimethylamino-2-(S)-{1-[4-(trifluoromethyl)phenyl]ethylamino}-5,6,7,8-tetrahydropyrido[4,3-d]pyrimidin-4-(3H)-one hydrochloride]	116 to 118 °C	17 nM	187 nM
C[C@H](Nc1nc2c(c(=O)n1N(C)C)CN(C(=O)c1ccc(Cl)cc1)CC2)c1ccc(Cl)cc1.Cl [Example 8, 6-(4-chlorobenzoyl)-2-(S)-[1-(4-chlorophenyl)ethylamino]-3-dimethylamino-5,6,7,8-tetrahydropyrido[4,3-d]pyrimidin-4-(3H)-one hydrochloride]	121 to 123 °C	25 nM	253 nM
CCC(Nc1nc2c(c(=O)n1OC)CN(C(=O)c1ccc(Cl)cc1)CC2)c1ccc(Cl)cc1.Cl (stereo not drawn) [Example 2421, 6-(4-chlorobenzoyl)-2-[1-(4-chlorophenyl)propylamino]-3-methoxy-5,6,7,8-tetrahydro-3H-pyrido[4,3-d]pyrimidin-4-one hydrochloride]	118.1 to 123.7 °C	44 nM	1570 nM
COn1c(N[C@@H](C)c2ccc(Cl)cc2)nc2c(c1=O)CN(C(=O)COc1ccc(Cl)cc1)CC2 [Example 2430, 6-[2-(4-chlorophenoxy)acetyl]-2-[(S)-1-(4-chlorophenyl)ethylamino]-3-methoxy-5,6,7,8-tetrahydro-3H-pyrido[4,3-d]pyrimidin-4-one]		15 nM	1180 nM
C[C@H](Nc1nc2c(c(=O)n1N(C)C)CN(C(=O)COc1ccc(Cl)cc1)CC2)c1ccc(Cl)cc1 [Example 2431, 6-[2-(4-chlorophenoxy)acetyl]-2-[(S)-1-(4-chlorophenyl)ethylamino]-3-dimethylamino-5,6,7,8-tetrahydro-3H-pyrido[4,3-d]pyrimidin-4-one]		207 nM	3600 nM
C[C@H](Nc1nc2c(c(=O)n1N1CCOCC1)CN(C(=O)c1ccc(C#N)cc1)CC2)c1ccc(C(F)(F)F)cc1 [Example 2432, 4-{3-morpholin-4-yl-4-oxo-2-[(S)-1-(4-trifluoromethylphenyl)ethylamino]-3,5,7,8-tetrahydro-4H-pyrido[4,3-d]pyrimidine-6-carbonyl}benzonitrile hydrochloride]		36 nM	238 nM
C#CCCn1c(N[C@@H](C)c2ccc(C(F)(F)F)cc2)nc2c(c1=O)CN(C(=O)c1ccc(C#N)cc1)CC2 [Example 2433, 4-{3-(3-butynyl)-4-oxo-2-[(S)-1-(4-trifluoromethylphenyl)ethylamino]-3,5,7,8-tetrahydro-4H-pyrido[4,3-d]pyrimidine-6-carbonyl}benzonitrile]		5 nM	62 nM
C#CCCn1c(N[C@@H](C)c2ccc(C(F)(F)F)cc2)nc2c(c1=O)CN(C(=O)c1ccc(C#N)cc1F)CC2 [Example 2435, 4-{3-(3-butynyl)-4-oxo-2-[(S)-1-(4-trifluoromethylphenyl)ethylamino]-3,5,7,8-tetrahydro-4H-pyrido[4,3-d]pyrimidine-6-carbonyl}-3-fluorobenzonitrile]		2 nM	68 nM
COn1c(NC(c2ccc(Cl)cc2)C(C)C)nc2c(c1=O)CN(C(=O)c1ccc(Cl)cc1)CC2 (stereo not drawn) [Example 2441, 6-(4-chlorobenzoyl)-2-[1-(4-chlorophenyl)-2-methylpropylamino]-3-methoxy-5,6,7,8-tetrahydro-3H-pyrido[4,3-d]pyrimidin-4-one]		37 nM	4490 nM
CC#CCn1c(N[C@@H](C)c2ccc(C(F)(F)F)cc2)nc2c(c1=O)CN(C(=O)c1cnc3ccccc3c1)CC2 [Example 2446, 3-(2-butynyl)-6-(quinoline-3-carbonyl)-2-[(S)-1-(4-trifluoromethylphenyl)ethylamino]-5,6,7,8-tetrahydro-3H-pyrido[4,3-d]pyrimidin-4-one]		28 nM	2790 nM
CC#CCn1c(N[C@@H](C)c2ccc(C(F)(F)F)cc2)nc2c(c1=O)CN(C(=O)c1ccc3ccccc3n1)CC2 [Example 2449, 3-(2-butynyl)-6-(quinoline-2-carbonyl)-2-[(S)-1-(4-trifluoromethylphenyl)ethylamino]-5,6,7,8-tetrahydro-3H-pyrido[4,3-d]pyrimidin-4-one]		24 nM	3350 nM
COn1c(N[C@@H](C)c2ccc(C(F)(F)F)cc2)nc2c(c1=O)CN(C(=O)c1ccc(C)c(C)c1)CC2 [Example 2452, 6-(3,4-dimethylbenzoyl)-3-methoxy-2-[(S)-1-(4-trifluoromethylphenyl)ethylamino]-5,6,7,8-tetrahydro-3H-pyrido[4,3-d]pyrimidin-4-one]		4 nM	1030 nM
C[C@H](Nc1nc2c(c(=O)n1N1CCOCC1)CN(C(=O)c1ccc(C#N)cc1F)CC2)c1ccc(C(F)(F)F)cc1 [Example 2463, 3-fluoro-4-{3-morpholin-4-yl-4-oxo-2-[(S)-1-(4-trifluoromethylphenyl)ethylamino]-3,5,7,8-tetrahydro-4H-pyrido[4,3-d]pyrimidine-6-carbonyl}benzonitrile hydrochloride]		3 nM	187 nM
C[C@H](Nc1nc2c(c(=O)n1N(C)C)CN(C(=O)c1c(F)cc(F)cc1F)CC2)c1ccc(C(F)(F)F)cc1 [Example 2484, 3-dimethylamino-6-(2,4,6-trifluorobenzoyl)-2-[(S)-1-(4-trifluoromethylphenyl)ethylamino]-5,6,7,8-tetrahydro-3H-pyrido[4,3-d]pyrimidin-4-one hydrochloride]		6 nM	216 nM
